The source of these data is patent publication US20090306062A1, “2,5-Disubstituted Piperidines” (priority 2006, published 2009).

This test has as its target T1, renin (Homo sapiens, UniProt P00797).
T1 construct: This test measures the formation of angiotensin I in human plasma; from tissue; host or cells: human plasma
T1 sequence (P00797 67-406): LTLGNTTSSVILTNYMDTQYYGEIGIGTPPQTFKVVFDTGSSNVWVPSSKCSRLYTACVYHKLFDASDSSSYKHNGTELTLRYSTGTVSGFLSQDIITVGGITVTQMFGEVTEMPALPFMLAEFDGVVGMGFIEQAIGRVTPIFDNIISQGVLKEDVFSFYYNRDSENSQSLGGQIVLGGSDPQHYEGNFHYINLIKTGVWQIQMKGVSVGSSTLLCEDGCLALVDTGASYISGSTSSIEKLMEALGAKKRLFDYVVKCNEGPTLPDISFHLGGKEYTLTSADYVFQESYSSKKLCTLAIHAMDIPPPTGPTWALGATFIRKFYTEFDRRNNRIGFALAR
Briefly: in vitro test according to Nussberger et al.: formation of angiotensin I in human plasma, radioimmunoassay. The format is biochemical. To be noted: range stated for the listed examples together, read-out: IC50, inhibition of the formation of angiotensin I. The method, then:
One experimental method of detecting the action of renin inhibitors is by means of in vitro tests, in which the reduction of the formation of angiotensin I in different systems (human plasma, purified human renin together with synthetic or natural renin substrate) is measured. One in vitro test which is used is the one according to Nussberger et al. (1987) J. Cardiovascular Pharmacol., Vol. 9, p. 39-44 which follows. This test measures the formation of angiotensin I in human plasma. The amount of angiotensin I formed is determined in a subsequent radioimmunoassay. Which action inhibitors have on the formation of angiotensin I is tested in this system by the addition of different concentrations of these substances. The IC50 refers to that concentration of the particular inhibitor which reduces the formation of angiotensin I by 50%.
With `COCCCN1CCOc2ccc(CO[C@@H]3CC[C@@H](CC(C)(C)C(=O)NCC4CC4)NC3)cc21` [Example 25, N-Cyclopropylmethyl-3-{(2S,5R)-5-[4-(3-methoxypropyl)-3,4-dihydro-2H-benzo[1,4]oxazin-6-ylmethoxy]piperidin-2-yl}-2,2-dimethylpropionamide], the 50% inhibitory concentration (IC50) (in general, the concentration that gives 50% inhibition) lay within 74 to 2800 nM.
The result for `COCCCN1CCOc2ccc(CO[C@@H]3CC[C@@H](CC(C)(C)C(=O)NCC(C)(C)C(N)=O)NC3)cc21` [Example 26, N-(2-Carbamoyl-2-methylpropyl)-3-{(2S,5R)-5-[4-(3-methoxypropyl)-3,4-dihydro-2H-benzo[1,4]oxazin-6-ylmethoxy]piperidin-2-yl}-2,2-dimethylpropionamide] reads 74 to 2800 nM; that for `COCCCOc1cc(CO[C@@H]2CC[C@@H](CC(C)(C)C(=O)NCC3CCOCC3)NC2)ccc1F` [Example 42, 3-{(2S,5R)-5-[4-Fluoro-3-(3-methoxypropoxy)benzyloxy]piperidin-2-yl}-2,2-dimethyl-N-(tetrahydropyran-4-ylmethyl)propionamide], 74 to 2800 nM; that for `COCCCN1C(=O)[C@](C)(c2ccccc2)Oc2ccc(CO[C@@H]3CC[C@@H](CC(C)(C)C(=O)NCC4CCOCC4)NC3)cc21` [Example 52, (S)-3-{(2S,5R)-5-[(S)-4-(3-Methoxypropyl)-2-methyl-3-oxo-2-phenyl-3,4-dihydro-2H-benzo[1,4]oxazin-6-ylmethoxy]piperidin-2-yl}-2,2-dimethyl-N-(tetrahydropyran-4-ylmethyl)propionamide], 74 to 2800 nM.
For the compound `COCCCN1CCOc2ccc(CO[C@@H]3CC[C@@H](C[C@@H](NC(=O)CC4CCOCC4)C(C)C)NC3)cc21` [Example 89, N—((R(or S))-1-{(2S,5R)-5-[4-(3-Methoxypropyl)-3,4-dihydro-2H-benzo[1,4]oxazin-6-ylmethoxy]piperidin-2-ylmethyl}-2-methylpropyl)-2-(tetrahydropyran-4-yl)acetamide], the IC50 was in the range of 74 to 2800 nM.
